{"source": "patent US11484608B2", "about": "“Non-invasive assessment of hepatic mitochondrial metabolism by positional isotopomer NMR tracer analysis (PINTA)” (YALE UNIVERSITY, priority 2017, dated 2022)", "key": {"[1]": {"test_system": "primary mouse hepatocytes", "assay": "In vitro glucose production, VPC and lipolysis in isolated hepatocytes", "type": "cell-based", "details": "for glucagon-stimulated VPC flux / glucagon-stimulated glucose production: WT hepatocytes, 100 nM glucagon, 8 hr; for effect of glucagon to stimulate intrahepatic lipolysis: isolated hepatocytes", "experimental": "For in vitro glucose production and lipolysis studies, primary mouse hepatocytes were isolated by the Yale Liver Center. Following removal of cell debris by Percoll density gradient centrifugation, cells were plated on 6-well collagen-I coated dishes (4.0×10^5 cells/well) in 2 ml recovery media (DMEM High Glucose containing 10% FBS, 2% penicillin-streptomycin, 100 nM dexamethasone, 1 nM insulin, and 10 mM HEPES). After incubation for 6 hr at 37° C. and 5% CO2, the attached cells were washed once in 1×PBS and then incubated overnight in 2 ml Low Glucose Culture Media (DMEM Low Glucose supplemented with 10% FBS, 2% penicillin-streptomycin and 10 mM HEPES for glucose production studies) or Serum Free Low Glucose Culture Media (DMEM Low Glucose supplemented with 0.5% fatty acid free BSA, 2% penicillin-streptomycin and 10 mM HEPES for lipolysis assays). […] After incubation for 8 hr at 37° C. and 5% CO2, cell culture media was collected for analysis of glucose, NEFA, and glycerol concentrations as described above. VPC was determined by measuring VPC/VEGP by PINTA as described above using 300 μL of the collected media, and multiplying this ratio by the measured glucose production rate. In a subset of studies, cells were incubated for 8 hr during the glucose production assay in media containing one of the following agents (all dissolved in 0.5% DMSO), or 0.5% DMSO vehicle: 20 μM ET-18-OCH3 (Santa Cruz), 100 μM U-73122 (Sigma), 30 nM thapsigargin (Sigma), 100 nM vasopressin (Sigma) 50 μM 2-APB (R&D Systems), 70 μM caffeine (Sigma), 1 mM malic enzyme inhibitor hydroxymalonate (Sigma). To inhibit PKA, hepatocytes were incubated in H-89 […] hydrate (Sigma, 25 μM) dissolved in media, or media lacking H-89 as a control. In the insulin treatment studies, hepatocytes were incubated in 1 nM insulin with 5% BSA and glucose production media for the duration of the glucose production assay. In the in vitro atglistatin study, hepatocytes were incubated in 10 μM atglistatin in 0.1% EtOH, or 0.1% EtOH vehicle. All values were normalized to total protein content determined from whole-cell lysates by a BCA protein assay (Thermo Fisher Scientific) according to the manufacturer's instructions and expressed as fold change verses vehicle-treated cells."}, "glycogen phosphorylase": {"target": "T1, glycogen phosphorylase (Rattus norvegicus, UniProt P09811)", "T1 construct": "from tissue; host or cells: live rat, in vivo (IV dosing); liver is the tissue discussed", "T1 sequence (P09811 1-850)": "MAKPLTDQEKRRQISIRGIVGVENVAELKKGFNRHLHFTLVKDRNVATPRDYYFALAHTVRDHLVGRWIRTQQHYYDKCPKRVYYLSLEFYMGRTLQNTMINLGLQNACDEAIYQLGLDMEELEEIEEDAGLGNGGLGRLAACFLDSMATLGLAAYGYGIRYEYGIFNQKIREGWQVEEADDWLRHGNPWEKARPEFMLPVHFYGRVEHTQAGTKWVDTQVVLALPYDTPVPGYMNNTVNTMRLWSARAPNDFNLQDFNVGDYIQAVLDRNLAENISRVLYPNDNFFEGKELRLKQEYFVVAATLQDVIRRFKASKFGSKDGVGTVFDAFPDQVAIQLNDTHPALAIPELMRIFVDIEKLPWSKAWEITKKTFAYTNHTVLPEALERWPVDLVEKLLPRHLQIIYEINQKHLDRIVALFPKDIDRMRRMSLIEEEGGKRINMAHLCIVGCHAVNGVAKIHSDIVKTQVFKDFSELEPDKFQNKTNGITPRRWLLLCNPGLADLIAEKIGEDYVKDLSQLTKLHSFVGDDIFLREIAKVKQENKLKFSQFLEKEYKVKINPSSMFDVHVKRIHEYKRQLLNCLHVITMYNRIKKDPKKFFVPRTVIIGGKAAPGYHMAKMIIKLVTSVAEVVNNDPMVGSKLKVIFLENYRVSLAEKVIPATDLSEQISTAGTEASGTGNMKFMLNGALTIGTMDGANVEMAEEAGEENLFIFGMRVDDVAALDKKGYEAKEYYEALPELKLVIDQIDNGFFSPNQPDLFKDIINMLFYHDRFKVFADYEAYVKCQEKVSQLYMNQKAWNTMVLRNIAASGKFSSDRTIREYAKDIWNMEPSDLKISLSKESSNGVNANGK", "assay": "Glycogen phosphorylase inhibitor in 8, 16 and 48 hr fasted rats", "type": "in vivo", "details": "for reduction in rates of endogenous glucose production: 5 mg/kg IV, 2 hr", "experimental": "8, 16, and 48 hr fasted rats were injected with a small molecule inhibitor of glycogen phosphorylase, 1-(3-(3-(2-Chloro-4,5-difluorobenzoyl) ureido)-4-methoxyphenyl)-3-methylurea (Sigma #361515; 5 mg/kg IV) and a tracer infusion of [2,3,3,3-^2H4]alanine ([…]prime for 5 min and […] continuous) and [3-^3H]glucose (0.3 μCi/min prime for 5 min and 0.3 μCi/min continuous) as well as [^13C4] β-hydroxybutyrate, [1,1,2,3,3-^2H5]glycerol, and [^13C16]palmitate at the rates listed in Table 9, for 120 min. Blood samples were obtained before (time zero) and 120 min after treatment with the glycogen phosphorylase inhibitor for measurement of turnover rates and plasma hormone/substrate concentrations. Hepatic acetyl-CoA content was altered by treatment with a CPT-1 inhibitor (etomoxir, 8 mg/kg) or an ATGL inhibitor (atglistatin, […]) in 0, 6, 16, and 48 hr fasted rats. Both agents were solubilized by suspending the drug in 4% ethanol/96% normal saline, heating to 60° C., and sonicating, and were cooled to room temperature before they were injected intraperitoneally. […] In these animals plasma glucose concentrations were measured every 15 minutes and a variable infusion of 20% glucose (Pfizer Hospira, Lake Forest, Ill.) was used to maintain plasma glucose concentrations ˜3.6-3.7 mM. The physiologic role of glucocorticoids was assessed in 6 and 48 hr fasted rats by treatment with a glucocorticoid receptor antagonist, mifepristone. Following a 2 hr tracer infusion at the rates described above to assess fatty acid, glycerol, glucose, and β-hydroxybutyrate turnover, rats were injected with mifepristone (40 mg/kg) IV. The tracer infusion was continued and the tracer of each of the above substrates was again measured 2 hr after treatment with mifepristone.\nAll whole-body substrate turnover rates were calculated using the equation Turnover=([Tracer APE/Plasma APE]−1)*Infusion rate, where APE designates the atom percent enrichment measured by mass spectrometry as described below (Biochemical Analysis). All chemicals used for flux analysis were obtained from SIGMA. Turnover of glucose, glycerol, and β-hydroxybutyrate were determined by gas chromatography-mass spectrometry (GC-MS). Briefly, both glucose and glycerol were deprotonized with 5 volumes of methanol, derivitized with 3 volumes of 1:1 acetic anhydride:pyridine, heated to 65° C. for 20 min, and 1 volume of methanol was added, then GC-MS was used in CI mode to measure glucose enrichment and EI mode to measure glycerol enrichment, with turnover calculated using the equation above. β-Hydroxybutyrate was deprotonized with 5 volumes of methanol and derivitized with 3 volumes of n-butanol 4N HCl, after which the samples were heated to 65° C. for 60 min, evaporated under N2 gas, and re-suspended in […] of trifluoroacetic acid:methylene chloride (1:7). Fatty acid turnover was measured by determining the plasma palmitate enrichment by GC-MS. Samples were prepared for measurements of palmitate enrichment by evaporating […] plasma, dissolving in […] 1:1 chloroform:methanol and derivitizing with […] boron trifluoride/methanol, then heating to 100° C. for 5 min, adding 2 mL pentane and 1 mL water, and centrifuging at low speed for 5 min. […] Alanine turnover was determined in rats infused with [2,3,3,3-^2H4]alanine by preparing samples to measure alanine enrichment by GC/MS (CI mode) using the same protocol as was employed to measure β-hydroxybutyrate enrichment."}, "[2]": {"details": "short-term fasted rats (8 and 16 hr)"}}, "data": [{"compound": "insulin", "values": [{"measurement": "glucose production and VPC flux", "setting": "[1]; isolated hepatocytes with insulin, unaltered in InsP3R-I KO", "result": "suppress"}]}, {"compound": "C/C=C(/C)C(=O)O[C@H]1C(C)=C2[C@H]([C@@H]1OC(=O)CCCCCCC)[C@@](C)(OC(C)=O)C[C@H](OC(=O)CCC)[C@@]1(O)[C@H]2OC(=O)[C@@]1(C)O", "note": "[thapsigargin]", "values": [{"measurement": "glucagon-stimulated VPC flux", "setting": "[1]", "result": "inhibited"}, {"measurement": "glucagon-stimulated glucose production", "setting": "[1]", "result": "inhibited"}, {"measurement": "effect of glucagon to stimulate intrahepatic lipolysis", "setting": "[1]", "result": "abrogated"}]}, {"compound": "COc1ccc(S(=O)(=O)N(CCO)c2ccccc2CN(C)C/C=C/c2ccc(Cl)cc2)cc1", "note": "[KN-93]", "values": [{"measurement": "glucagon-stimulated glucose production", "setting": "[1]", "result": "abrogated"}, {"measurement": "effect of glucagon to stimulate intrahepatic lipolysis", "setting": "[1]", "result": "abrogated"}]}, {"compound": "NCCOB(c1ccccc1)c1ccccc1", "note": "[2-APB, 2-aminoethoxydiphenyl borate]", "values": [{"measurement": "glucagon-stimulated VPC flux", "setting": "[1]", "result": "inhibited"}, {"measurement": "glucagon-stimulated glucose production", "setting": "[1]", "result": "inhibited"}, {"measurement": "effect of glucagon to stimulate intrahepatic lipolysis", "setting": "[1]", "result": "abrogated"}]}, {"compound": "COc1ccc2c(c1)CC[C@@H]1[C@@H]2CC[C@]2(C)[C@@H](NCCCCCCN3C(=O)C=CC3=O)CC[C@@H]12", "note": "[U-73122]", "values": [{"measurement": "glucagon-stimulated VPC flux", "setting": "[1]", "result": "inhibited"}, {"measurement": "glucagon-stimulated glucose production", "setting": "[1]", "result": "inhibited"}, {"measurement": "effect of glucagon to stimulate intrahepatic lipolysis", "setting": "[1]", "result": "abrogated"}]}, {"compound": "CNC(=O)Nc1ccc(OC)c(NC(=O)NC(=O)c2cc(F)c(F)cc2Cl)c1", "note": "[glycogen phosphorylase inhibitor, 1-(3-(3-(2-Chloro-4,5-difluorobenzoyl)ureido)-4-methoxyphenyl)-3-methylurea]", "values": [{"measurement": "plasma ACTH concentrations", "setting": "glycogen phosphorylase; 8- and 16-hr fasted rats", "result": "increases"}, {"measurement": "plasma corticosterone concentrations", "setting": "glycogen phosphorylase; 8- and 16-hr fasted rats", "result": "increases"}, {"measurement": "plasma leptin concentrations", "setting": "glycogen phosphorylase; 8- and 16-hr fasted rats", "result": "reductions"}, {"measurement": "reduction in rates of endogenous glucose production", "setting": "glycogen phosphorylase; 8-hr fasted rats", "result": 60, "unit": "%"}, {"measurement": "plasma FGF-21 concentrations", "setting": "glycogen phosphorylase; 8 and 16-hr fasted rats", "result": "increased"}, {"measurement": "plasma glucose concentrations", "setting": "glycogen phosphorylase; 8 and 16 hr fasted rats", "result": "lowered"}, {"measurement": "plasma insulin concentrations", "setting": "glycogen phosphorylase; 8 and 16 hr fasted rats", "result": "lowered"}, {"measurement": "plasma lactate concentrations", "setting": "glycogen phosphorylase; 8 and 16 hr fasted rats", "result": "lowered"}, {"measurement": "whole-body glucose turnover", "setting": "glycogen phosphorylase; 8 and 16 hr fasted rats", "result": "lowered"}, {"measurement": "reduction in rates of endogenous glucose production", "setting": "glycogen phosphorylase; 16-hr fasted rats", "result": 30, "unit": "%"}, {"measurement": "plasma glucose, lactate, and insulin concentrations and whole-body glucose turnover", "setting": "glycogen phosphorylase; 48-hr fasted rats", "result": "not in the 48-hr fasted rats"}, {"measurement": "rates of endogenous glucose production", "setting": "glycogen phosphorylase; 48-hr fasted rats", "result": "no difference"}, {"measurement": "plasma glucagon and catecholamine concentrations", "setting": "glycogen phosphorylase; fasted rats", "result": "not altered"}, {"measurement": "rates of WAT lipolysis", "setting": "glycogen phosphorylase; [2]", "result": "increased"}, {"measurement": "rates of alanine turnover", "setting": "glycogen phosphorylase; [2]", "result": "decreased"}]}, {"compound": "CCCCCCCCCCCCCCCCCCOCC(COP(=O)([O-])OCC[N+](C)(C)C)OC", "note": "(stereo not drawn) [ET-18-OCH3]", "values": [{"measurement": "glucagon-stimulated VPC flux", "setting": "[1]", "result": "inhibited"}, {"measurement": "glucagon-stimulated glucose production", "setting": "[1]", "result": "inhibited"}, {"measurement": "effect of glucagon to stimulate intrahepatic lipolysis", "setting": "[1]", "result": "abrogated"}]}, {"compound": "Cn1c(=O)c2c(ncn2C)n(C)c1=O", "note": "[caffeine]", "values": [{"measurement": "glucagon-stimulated VPC flux", "setting": "[1]", "result": "inhibited"}, {"measurement": "glucagon-stimulated glucose production", "setting": "[1]", "result": "inhibited"}, {"measurement": "effect of glucagon to stimulate intrahepatic lipolysis", "setting": "[1]", "result": "abrogated"}]}]}
